The record followed here is patent publication US11155514B1, “Pleuromulin acitretin ester with antibacterial activity and a method of preparing the same” (SHAANXI UNIVERSITY OF SCIENCE AND TECHNOLOGY, priority 2020, dated 2021).

In brackets after ≈: the same amount, converted by molar mass. Where two headings read alike, the source gives them in different places.

Common to all, as to type: cell-based
Test [1] deals with methicillin-resistant Staphylococcus aureus MRSA 18-575. Briefly: MIC by microbroth dilution, MRSA 18-575. The protocol:
(§1) The minimal inhibitory concentration (MIC) of the compounds was determined by a microbroth dilution method with gentamicin, cefazolin sodium and ceftriaxone sodium as positive controls.
(§2) The experimental strains included methicillin-resistant Gram-positive bacteria: methicillin-resistant Staphylococcus aureus MRSA 18-222, 18-575; multiple drug-resistant Gram-negative bacteria: […], multidrug-resistant Pseudomonas aeruginosa MDR-PA 18-174,18-202, carbapenem-resistant Acinetobacter baumannii CR-AB 18-183,18-560. All the experimental strains were donated by Huashan Hospital affiliated to Fudan University (Institute of antibiotics, Fudan University) and used after routine identification.
(§3) Preparation of Test Strains:
(§4) Preparation of MHB medium: 20.0 g MHB medium was added to 1 L distilled water, boiled until completely dissolved, packed in conical bottles and sterilized at 121° C. for 15 min.
(§5) The experimental strain was cultured to the logarithmic growth phase: under aseptic condition, the experimental strain was inoculated into 100 mL MHB medium and incubated in a constant temperature and humidity incubator at 37° C. for 20-22 hours.
(§6) Preparation of storage solution: weigh the sample to be tested, dissolve it with 1% DMSO solution, prepare a storage solution with a concentration of 2560 μg/mL, weigh a positive reference substance, dissolve it with aseptic distilled water, and configure a storage solution with a concentration of 2560 μg/mL.
(§7) Preparation of bacterial suspension: under aseptic condition, the experimental strains cultured to logarithmic growth phase were adjusted to 0.5 MCF turbidity standard with MHB medium and diluted according to 1:10, and the bacterial suspension with concentration of 10^6 CFU/mL was prepared for standby.
(§8) Stock solution dilution and inoculation of experimental strains: under aseptic conditions, dilute the stock solution to a solution of 256 μg/mL. Take a sterile 96-well plate, add 100 μL of MHB medium to each well except for the first and second wells; add 100 μL of positive control solution to the first well, and add 100 μL of compound sample solution to the second and third wells; Mix the sample solution in the 3 wells with the medium, and then pipet 100 μL to the 4th well, and then pipet 100 μL to the 5th well after mixing, and then dilute to the 9th well in a series of times, and draw 100 μL from the 9th well and discard, the 10th well is a growth control without drugs; then, add 100 μL of the above-prepared bacterial suspension to each well to make the final bacterial concentration of each well 5×10^5 CFU/mL; so far, the positive control concentration is 128 μg/mL, the concentration of the sample solution is 128, 64, 32, 16, 8, 4, 2, 1 μg/mL.
(§9) Incubation: Cover the 96-well plate inoculated with the experimental strains, and incubate in a constant temperature and humidity box at 37° C. for 20-22 hours.
(§10) In FIGS. 1-2, the ten wells represent ten groups, from left to right, positive, 128 μg/mL, 64 μg/mL, 32 μg/mL, 16 μg/mL, 8 μg/mL, 4 μg/mL, 2 μg/mL, 1 μg/mL, Negative.
(In broth dilution the organism is exposed to a series of concentrations in liquid medium.)

The subject of test [2] is carbapenem-resistant Acinetobacter baumannii CR-AB 18-560. Kind of test: MIC by microbroth dilution, CR-AB 18-560. Conditions: for MIC: Acinetobacter baumannii, read-out: Minimum bacteriostatic concentration (MIC). The protocol: as §1, §2, §3, §4, §5, §6, §7, §8, §9
In test [3] the test system is multidrug-resistant Pseudomonas aeruginosa MDR-PA 18-174. Kind of test: MIC by microbroth dilution, MDR-PA 18-174. The following applies: for MIC: Pseudomonas aeruginosa, read-out: Minimum bacteriostatic concentration (MIC). The protocol:
as §1, §2, §3, §4, §5, §6, §7, §8, §9

Test [4] has as its system vancomycin-resistant enterococci VRE 18-94. Briefly: MIC by microbroth dilution, VRE 18-94. The following applies: for MIC: Enterococcus, read-out: Minimum bacteriostatic concentration (MIC). The protocol: as §1, §2, §3, §4, §5, §6, §7, §8, §9
Test [5] concerns carbapenem-resistant Acinetobacter baumannii CR-AB 18-183. Briefly: MIC by microbroth dilution, CR-AB 18-183. Conditions: for MIC: Acinetobacter baumannii, read-out: Minimum bacteriostatic concentration (MIC). The protocol: as §1, §2, §3, §4, §5, §6, §7, §8, §9
Test [6] has as its system multidrug-resistant Pseudomonas aeruginosa MDR-PA 18-202. Kind of test: MIC by microbroth dilution, MDR-PA 18-202. As for the experimental part: as §1, §2, §3, §4, §5, §6, §7, §8, §9, §10
The test system of test [7] is vancomycin-resistant enterococci VRE 18-80. Kind of test: MIC by microbroth dilution, VRE 18-80. The following applies: for MIC: Enterococcus, read-out: Minimum bacteriostatic concentration (MIC). The protocol:
as §1, §2, §3, §4, §5, §6, §7, §8, §9

Test [8] has as its system methicillin-resistant Staphylococcus aureus MRSA 18-222. Kind of test: MIC by microbroth dilution, MRSA 18-222. The following applies: for MIC: Staphylococcus aureus, read-out: Minimum bacteriostatic concentration (MIC). The protocol: as §1, §2, §3, §4, §5, §6, §7, §8, §9
For the next test, the system named is drug-resistant bacteria. Briefly: Antibacterial activity test, summary over all experimental strains. Conditions: text summary of FIG. 1-2 and Table 1. As for the experimental part:
as §1, §2, §3, §4
The experimental strain was cultured to the logarithmic growth phase: under aseptic condition, the experimental strain was inoculated into 100 mL MHB medium and incubated in a constant temperature and humidity incubator at 37° C. for 20-22 hours. […]

Setting [9] is: Staphylococcus aureus, strain MRSA 18-575, 37° C., 20-22 hours, read-out: Minimum bacteriostatic concentration (MIC).
[10] abbreviates: strain CR-AB 18-560, 37° C., 20-22 hours.
Setting [11] is: strain MDR-PA 18-174, 37° C., 20-22 hours.
[12] abbreviates: strain VRE 18-94, 37° C., 20-22 hours.
Setting [13] is: strain CR-AB 18-183, 37° C., 20-22 hours.
Setting [14] is: Pseudomonas aeruginosa, strain MDR-PA 18-202, 37° C., 20-22 hours, read-out: Minimum bacteriostatic concentration (MIC).
[15] abbreviates: strain VRE 18-80, 37° C., 20-22 hours.
Setting [16] is: strain MRSA 18-222, 37° C., 20-22 hours.

Regarding `CO/N=C(\C(=O)N[C@@H]1C(=O)N2C(C(=O)O)=C(CSc3nc(=O)c(=O)[nH]n3C)CS[C@H]12)c1csc(N)n1` [Ceftriaxone sodium], the MIC in test [1] (setting [9]) is more than 128 µg/mL; in test [2] (setting [10]), more than 128 µg/mL; in test [3] (setting [11]) it was 128 µg/mL; in test [4] (setting [12]), more than 128 µg/mL; in test [5] (setting [13]), more than 128 µg/mL; in [6] (setting [14]), 16 µg/mL. Also, the MIC in test [7] (setting [15]) was 8 µg/mL; in test [8] (setting [16]) it was more than 128 µg/mL.
Regarding `C=C[C@]1(C)C[C@@H](OC(=O)COC(=O)/C=C(C)/C=C/C=C(C)/C=C/c2c(C)cc(OC)c(C)c2C)[C@]2(C)CC[C@@H](C)C3(CCC(=O)[C@H]32)[C@@H](C)[C@@H]1O` [Pleuromulin acitretinester, (2E,4E,6E,8E)-2-(((4R,5S,6S,8R,9R,9aR,12R)-5-hydroxy-4,6,9,12-tetramethyl-1-oxo-6-vinyldecahydro-3a,9-propanocyclopenta[8]annulen-8-yl)oxy)-2-oxoethyl 9-(4-methoxy-2,3,6-trimethylphenyl)-3,7-dimethylnona-2,4,6,8-tetraenoate], the MIC in test [1] (setting [9]) was 64 µg/mL (≈ 93.2 µM); in test [1] (multi-drug resistant Staphylococcus aureus MRSA, strain not named, read-out: MIC), 64 µg/mL (≈ 93.2 µM); in test [2] (setting [10]), more than 128 µg/mL; in [3] (setting [11]) it was more than 128 µg/mL; in test [4] (setting [12]) it was more than 128 µg/mL; in [5] (setting [13]) it was more than 128 µg/mL. In addition, the MIC in test [6] (setting [14]) was 128 µg/mL (≈ 186 µM); in [6] (multi-drug resistant Pseudomonas aeruginosa MDR-PA, strain not named, read-out: MIC) it was 128 µg/mL (≈ 186 µM); in test [7] (setting [15]), more than 128 µg/mL; in [8] (setting [16]), more than 128 µg/mL.
For the compound Gentamicin, the “Minimum bacteriostatic concentration (MIC)” value in test [1] (strain MRSA 18-575, 37° C., 20-22 hours) is 2 µg/mL; in test [2] (setting [10]), more than 128 µg/mL; in test [3] (setting [11]), 0.0625 µg/mL; in test [4] (setting [12]), more than 128 µg/mL; in [5] (setting [13]) it was more than 128 µg/mL; in test [6] (strain MDR-PA 18-202, 37° C., 20-22 hours), 0.0625 µg/mL. Besides, the “Minimum bacteriostatic concentration (MIC)” value was 0.0625 µg/mL in test [7] (setting [15]) and 128 µg/mL in test [8] (setting [16]).
With `Cc1nnc(SCC2=C(C(=O)O)N3C(=O)[C@@H](NC(=O)Cn4cnnn4)[C@H]3SC2)s1` [Cefazolin sodium], the MIC in test [1] (setting [9]) is more than 128 µg/mL; in test [2] (setting [10]), more than 128 µg/mL; in test [3] (setting [11]), 8 µg/mL; in test [4] (setting [12]), more than 128 µg/mL; in test [5] (setting [13]), more than 128 µg/mL; in [6] (setting [14]), 128 µg/mL. Besides, the MIC in test [7] (setting [15]) is 32 µg/mL; in [8] (setting [16]), more than 128 µg/mL.
In the case of `COc1cc(C)c(/C=C/C(C)=C/C=C/C(C)=C/C(=O)O)c(C)c1C` [Acitretin], the MIC is more than 128 µg/mL in test [1] (Staphylococcus aureus, MRSA, read-out: Minimum bacteriostatic concentration (MIC)); more than 128 µg/mL in test [2]; more than 128 µg/mL in test [3]; more than 128 µg/mL in test [4] (VRE); more than 128 µg/mL in test [5]; more than 128 µg/mL in test [6] (Pseudomonas aeruginosa, read-out: Minimum bacteriostatic concentration (MIC)). In addition, the MIC in test [7] (VRE) and in test [8] (MRSA) was more than 128 µg/mL throughout. Also, the “inhibitory effect on drug-resistant bacteria” value with drug-resistant bacteria is reported as “no inhibitory effect”.
With `C=C[C@]1(C)C[C@@H](OC(=O)CO)[C@]2(C)[C@H](C)CC[C@]3(CCC(=O)[C@H]32)[C@@H](C)[C@@H]1O` [Pleuromulin], the MIC in [1] (setting [9]), in test [2] (setting [10]), in test [3] (setting [11]), in [4] (setting [12]), in [5] (setting [13]) and in test [6] (setting [14]) was more than 128 µg/mL throughout. Further, the MIC in [7] (setting [15]) and in test [8] (setting [16]) was more than 128 µg/mL each time. The “inhibitory effect on drug-resistant bacteria” value in the test on drug-resistant bacteria is given as “no inhibitory effect”.
